Target: T1, human plasmin (Homo sapiens, UniProt P00747)
T1 construct: precursors of plasmin, such as plasminogen
Test: indirect enzymatic determination: release of pNA from chromogenic substrate S-2251 by plasmin in the presence of defibrotide
Format: biochemical
Description: 150 μl of each of the standard defibrotide solutions described above are taken and introduced into the wells of the microplates.
The plasmin solution is then prepared rapidly by adding, at 0° C., 3.8 ml of TRIS-HCl buffer to the test tube containing 0.2 ml of human plasmin solution. The whole is agitated gently until dissolution has occurred, and 50 μl are taken and introduced into the wells of the microplate, followed by 50 μl of S-2251 for each well.
The microplate, placed in the MRX TCII reader set at 37° C., is agitated for approximately 10 seconds; the absorbance readings are carried out at 405 nm, at the initial time t0 and subsequently every two minutes in the interval from 10 to 20 minutes, in accordance with the enzymatic kinetics program.
The microplate, placed in the MRX TCII reader set at 37° C., is agitated for approximately 10 seconds; the absorbance readings are taken at 405 nm, at the initial time t0 and subsequently every 5 minutes for a period from the 20th to the 50th minute, in accordance with the enzymatic kinetics program.
The absorbance values measured are then processed (Excel and Sigma Plot programs), tabulated and represented in a graph (regression lines).
In addition, considering the data reported in Table 1, 2 and 3, we have also calculated the μM/min of p-Nitroaniline released by plasmin acting on the chromogenic substrate in the presence of Defibrotide.
The “b” values reported in Tables 1, 2 and 3, namely the slopes of the kinetics curves, represent the ΔAbs/min×1000 (usually, just to avoid numbers with commas, the scale for the spectrophotometric readings in FIGS. 3, 4 and 5 was multiplied by 1000; as a consequence, the real spectrophotometric absorbance reading is obtained dividing “b” by 1,000).
Knowing from the literature, the Molar Extinction Coefficient for p-Nitroaniline (8,270 M^−1cm^−1, corresponding to 0.008270 Unit of Absorbance per μM of p-Nitroaniline) it follows that: 1μM p-Nitroaniline: 0.008270 (Absorbance)=X μM p-Nitroaniline: Spectrophotometric Reading (“b”/1000)
In this way we have calculated the micromoles of p-Nitroaniline released in the previous experiments, whose value are reported in table 4.

[1] = Mean±Standard Deviation of 5 replications, X = concentration of defibrotide (μg/ml)
[2] = Replication 2, X = concentration of defibrotide (μg/ml)
[3] = Replication 3, X = concentration of defibrotide (μg/ml)
[4] = Replication 4, X = concentration of defibrotide (μg/ml)
[5] = Replication 5, X = concentration of defibrotide (μg/ml)

T1 sequence (P00747 97-580 limits assumed): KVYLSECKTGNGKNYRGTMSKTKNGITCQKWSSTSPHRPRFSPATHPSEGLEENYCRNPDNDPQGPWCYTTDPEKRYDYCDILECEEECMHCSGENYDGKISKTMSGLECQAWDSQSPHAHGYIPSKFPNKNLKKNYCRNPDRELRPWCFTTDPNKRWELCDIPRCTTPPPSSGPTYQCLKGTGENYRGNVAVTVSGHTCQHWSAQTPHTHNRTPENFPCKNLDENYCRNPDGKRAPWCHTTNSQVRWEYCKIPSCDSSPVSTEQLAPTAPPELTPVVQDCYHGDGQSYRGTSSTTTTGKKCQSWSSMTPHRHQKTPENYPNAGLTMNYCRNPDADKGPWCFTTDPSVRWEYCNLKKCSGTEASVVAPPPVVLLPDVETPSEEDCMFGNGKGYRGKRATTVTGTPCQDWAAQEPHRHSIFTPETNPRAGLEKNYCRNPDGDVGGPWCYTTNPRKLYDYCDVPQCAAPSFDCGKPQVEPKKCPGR
T1 sequence (P00747 581-810 limits assumed): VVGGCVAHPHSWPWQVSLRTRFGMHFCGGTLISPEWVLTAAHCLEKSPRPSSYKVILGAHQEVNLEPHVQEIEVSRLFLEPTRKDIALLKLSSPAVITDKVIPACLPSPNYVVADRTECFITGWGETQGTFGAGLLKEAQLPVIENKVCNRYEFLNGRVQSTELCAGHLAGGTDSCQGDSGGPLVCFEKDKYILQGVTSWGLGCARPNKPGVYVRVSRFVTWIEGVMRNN

a of pNA(μM/min)=a+blog X [1]: 0.6908±0.0291 μM/min
b of pNA(μM/min)=a+blog X [1]: 0.3140±0.0437
slope b of regression μM/min p-Nitroaniline = a + b log X (Replication 1, X = concentration of defibrotide (μg/ml)): 0.3820
intercept a of regression μM/min p-Nitroaniline = a + b log X (Replication 1, X = concentration of defibrotide (μg/ml), 37° C., 405 nm): 0.7317 μM/min
intercept a of regression μM/min p-Nitroaniline = a + b log X [2]: 0.6625 μM/min
slope b of regression μM/min p-Nitroaniline = a + b log X [2]: 0.2907
intercept a of regression μM/min p-Nitroaniline = a + b log X [3]: 0.6708 μM/min
slope b of regression μM/min p-Nitroaniline = a + b log X [3]: 0.2741
intercept a of regression μM/min p-Nitroaniline = a + b log X [4]: 0.6792 μM/min
slope b of regression μM/min p-Nitroaniline = a + b log X [4]: 0.2907
intercept a of regression μM/min p-Nitroaniline = a + b log X [5]: 0.7100 μM/min
slope b of regression μM/min p-Nitroaniline = a + b log X [5]: 0.3323
Substance: Defibrotide
effect on rate of release of compound X (pNA) by plasmin from its substrate (plasmin-evaluation tests with substrate A1-A2-A3-X): increases the rate of release of compound X proportionally to its concentration
